We go through four molecules from article PMC8330727, “Triglyceride-mimetic prodrugs of scutellarin enhance oral bioavailability by promoting intestinal lymphatic transport and avoiding first-pass metabolism” (Drug Delivery, 2021).

≈ marks a conversion by molar mass, not a printed value. Where two headings read alike, the source gives them in different places. Some results are limits rather than exact numbers.

Data set [1] can be described thus: Oral bioavailability / pharmacokinetic study in conscious female S-D rats (plasma scutellarin by UHPLC-MS/MS). Particulars: Sprague-Dawley (S-D), rat, in vivo. Here is the method:
Scutellarin exposure after oral administration of scutellarin and prodrugs was detected in conscious female S-D rats. The rats were fasted for 12 h before the experiment and divided into three groups (n = 5 each group) randomly: scutellarin solution (25 mg/kg), Scu-Me-C5-TG solution (62.5 mg/kg equivalent to Scu), Scu-Me-C5-βMe-TG solution (62.5 mg/kg equivalent to Scu). Blood samples (0.5 mL) were collected from 5 min before administration to up to 24 h post-dosing and centrifuged at 16,000 rpm for 15 min to separate plasma. 100 μL plasma was added into 900 μL methanol and vortexed for 5 min, then centrifuged at 16,000 rpm for 15 min. The supernatant was sampled and used for UHPLC-MS/MS detection. The pharmacokinetic parameters were calculated by DAS 2.0 software.

On the set-up of data set [2]: method as in Huang et al., 2005. Particulars: rats; ref Huang et al., 2005; cited from earlier work.
A short description of data set [3]: In vivo lymphatic transport in anesthetized mesenteric lymph duct-cannulated rats. On the set-up: species or system rat. Particulars: scutellarin 25 mg/kg intragastric, anesthetized female rats.
For data set [4] the following is noted: cited from earlier work.
Details of data set [5]: method as in Marina Shamis and Shabat, 2003; Ma et al., 2015. Particulars: Figure 2; ref Marina Shamis and Shabat, 2003; Ma et al., 2015; cited from earlier work.
On the set-up of data set [6]: method as in Lu et al., 2010. The following applies: humans, 60 mg of scutellarin taken orally; ref Lu et al., 2010; cited from earlier work.
The conditions of data set [7]: source not stated; cited from earlier work.

For the molecule `CCCCCCCCCCCCCCCC(=O)OCC(COC(=O)CCCCCCCCCCCCCCC)OC(=O)CCCC(=O)Oc1ccc(-c2cc(=O)c3c(O)c(O)c(O[C@@H]4O[C@H](C(=O)OC)[C@@H](O)[C@H](O)[C@H]4O)cc3o2)cc1` [Scu-Me-C5-TG, 1,3-bis(palmitoyloxy)propan-2-yl (4-(5,6-dihydroxy-4-oxo-7-(((2S,3R,4S,5S,6S)-3,4,5-trihydroxy-6-(methoxycarbonyl)tetrahydro-2H-pyran-2-yl)oxy)-4H-chromen-2-yl)phenyl) glutarate], in data set [1], the F rel turned out to be 223.8%; the “maximum plasma concentration (Cmax), fold of the parent drug” value was 1.72 fold; the “relative oral bioavailability (Frel), fold of scutellarin” value is given as 2.24 fold.
In the case of `CCCCCCCCCCCCCCCC(=O)OCC(COC(=O)CCCCCCCCCCCCCCC)OC(=O)CC(C)CC(=O)Oc1ccc(-c2cc(=O)c3c(O)c(O)c(O[C@@H]4O[C@H](C(=O)OC)[C@@H](O)[C@H](O)[C@H]4O)cc3o2)cc1` (stereo partly shown) [Scu-Me-C5-βMe-TG], in data set [1], the F rel came to 245.2%; the “maximum plasma concentration (Cmax), fold of the parent drug” value is reported as 2.11 fold; the “relative oral bioavailability (Frel), fold of scutellarin” value was 2.45 fold.
A word on the Log P: it is the decadic logarithm of the partition coefficient of the neutral form, usually between octanol and water. For the molecule `O=C(O)[C@H]1O[C@@H](Oc2cc3oc(-c4ccc(O)cc4)cc(=O)c3c(O)c2O)[C@H](O)[C@@H](O)[C@@H]1O` [Scutellarin], the oral bioavailability in data set [2] was 10.6%. Besides, in data set [3], the “drug in collected mesenteric lymph (mass spectrometry)” value is recorded as “failed to reach the limit of quantification”. The “Log P” value in data set [4] (source not stated) is −2.56. The water solubility in data set [5] was 20 µg/mL (≈ 43.3 µM). Also, the “Plasma Cmax” value in data set [6] is recorded as under 5.0 ng/mL. In data set [7], the pKa was 3-5.
Consider `CC[C@@]1(O)C(=O)OCc2c1cc1n(c2=O)Cc2cc3c(CN(C)C)c(O)ccc3nc2-1` [Topotecan], for which the “Log P” value in data set [4] (ref Wang et al., 2017) is given as 0.8.
